Laboratory results reported in ChEMBL document CHEMBL1151351, “Antineoplastic Agents. 67. Senecio fendleri Gray” (1980).

Assays:
[1] = tested on: P388; assay: In vivo antitumor activity against mouse P388 cells at 5 mg/kg relative to control; format: functional
[2] = tested on: P388; assay: In vivo antitumor activity against mouse P388 cells at 2 mg/kg relative to control; format: functional

Structure (SMILES) | T/C [1] [%] | T/C [2] [%]
CCOC(=O)CC1(O)C=CC(=O)C=C1 | 120 | –
COC(=O)CC1(O)C=CC(=O)C=C1 [JACARANONE] | – | 165
